# Measurements taken from US12226401B2, “Molecular genetic approach to treatment and diagnosis of alcohol and drug dependence” (priority 2010, dated 2025).
# Assays:
# Type in all cases: in vivo, human
# [1] = test system: alcohol dependent patients; experiment: Phase II study of 283 randomized alcohol dependent subjects: ondansetron response by 5'-HTTLPR and 3'-UTR genotype (PHDD, DDD, PDA, patients with no heavy drinking); settings: LL/TT, LL/TG, LL/GG, LS/TG, and SS/TG genotypes
# From the text: The TT and TG genotype groups can be summarized as T carriers.
# [2] = test system: alcohol dependent individuals; experiment: Same ondansetron alcohol dependence trial, epistatic genotype analysis: percentage of days abstinent (PDA)
# From the text: (§1) Using the same data as was used in Example 11, further epistatic analysis among SNPs from serotonin (SERT), 5HT-3A, and 5HT-3B reveal that significant epistatic effect exists among the three genes in affecting response to ondesetron treatment as measured by drinks/drinking day (DDD), drinks/day (DD), percentage heavy drinking days (PHDD), and percentage of days abstinent (PDA).
# (§2) Using the same data as was used in Example 11, further epistatic analysis among SNPs from serotonin (SERT), 5HT-3A, and 5HT-3B reveal that significant epistatic effect exists among the three genes in affecting response to ondesetron treatment as measured by DDD, DD, and PDA.
# [3] = test system: alcohol dependent individuals; experiment: Same ondansetron alcohol dependence trial, epistatic genotype analysis: drinks/day (DD)
# From the text: as §1, §2
# [4] = test system: methamphetamine dependent subjects; experiment: Methamphetamine/Ondansetron study: proportion of subjects with methamphetamine-free (clean) week, GEE analysis by 5'-HTTLPR genotype
# From the text: Methods: Data were modeled using generalized estimating equations (GEE). […] Independent variables were genotype, group, weeks since randomization and the interaction between treatment group and weeks since randomization. […] The model's group and genotype terms allowed for possible differences at baseline due to ineffective randomization and genotype, respectively. Group consisted of two levels: placebo vs. all active arms combined, where all active arms were combined at the request of the study sponsor and investigators. Subjects were of three different genotypes—SS, LL and LS. At the request of the investigator, two, separate GEE analyses were run, one for each pairing of a homozygote with the heterozygote (i.e., SS-LS and LL-LS). Due to the small quantity of subjects for which genotyping was conducted (n=34), hypothesis testing used Type III generalized score statistics. Analysis was restricted to data obtained post-randomization. Methods: Data were modeled using generalized estimating equations (GEE). […] Independent variables were genotype, group, weeks since randomization and the interaction between treatment group and weeks since randomization. The hypothesis of primary interest asked if treatment with ondansetron influences rate of change in methamphetamine usage over time. […] The model's group and genotype terms allowed for possible differences at baseline due to ineffective randomization and genotype, respectively. Group consisted of two levels: placebo vs. all active arms combined, where all active arms were combined at the request of the study sponsor and investigators. Subjects were of three different genotypes—SS, LL and LS. At the request of the investigator, two, separate GEE analyses were run, one for each pairing of a homozygote with the heterozygote (i.e., SS-LS and LL-LS). Due to the small quantity of subjects for which genotyping was conducted (n=34), hypothesis testing used Type III generalized score statistics. Analysis was restricted to data obtained post-randomization.
# alcoholics = experiment: Predicted treatment outcome with ondansetron by 5'-HTTLPR / rs1042173 genotype matrix; set-up: key: XA being the very best; all the cells marked with an X will be efficacious; Y may respond somewhat; Z will not respond or worsen
# [5] = Among Comb (LL + TT or AC or AG)
# [6] = Among OND, Comb = LL + TT or AC or AG
# [7] = Others (not LL + TT or AC or AG)
# [8] = all OND patients, model Comb (LL + TT or AC or AG) vs Others
structure (smiles),measurement,setting,value
"Cc1nccn1CC1CCc2c(c3ccccc3n2C)C1=O (stereo not shown) [ondansetron, 9-methyl-3-[(2-methyl-1H-imidazol-1-yl)methyl]-1,2,3,9-tetrahydrocarbazol-4-one]",Response to ondansetron treatment by genotype,[1],respond to ondansetron treatment
same,"Least Squares Mean Difference, PDA, OND vs. Placebo",[2]; [5],13.36
same,"Least Squares Mean Difference, PDA, Comb vs. Others",[2]; [6],13.11
same,"Least Squares Mean, Percentage Days of Abstinent (PDA)",[2]; Comb (LL + TT or AC or AG),48.68
same,"Least Squares Mean, Percentage Days of Abstinent (PDA)",[2]; [7],35.58
same,"Least Squares Mean, Percentage Days of Abstinent (PDA)",[2]; [8],42.13
same,"Least Squares Mean Difference, Drinks per Days, OND vs. Placebo",[3]; [5],−1.65
same,"Least Squares Mean Difference, Drinks per Days, Comb vs. Others",[3]; [6],−1.65
same,"Least Squares Mean, Drinks per Days",[3]; Comb (LL + TT or AC or AG),2.90
same,"Least Squares Mean, Drinks per Days",[3]; [7],4.55
same,"Least Squares Mean, Drinks per Days",[3]; [8],3.72
same,"Proportion with Clean Week, Mean","[4]; Active Arm Yes (all active arms combined), all genotypes, study week 1",0.55
same,"Proportion with Clean Week, Mean","[4]; Active Arm Yes, all genotypes, study week 2",0.50
same,"Proportion with Clean Week, Mean","[4]; Active Arm Yes, all genotypes, study week 3",0.63
same,"Proportion with Clean Week, Mean","[4]; Active Arm Yes, all genotypes, study week 4",0.53
same,"Proportion with Clean Week, Mean","[4]; Active Arm Yes, all genotypes, study week 5",0.43
same,"Proportion with Clean Week, Mean","[4]; Active Arm Yes, all genotypes, study week 6",0.33
same,"Proportion with Clean Week, Mean","[4]; Active Arm Yes, all genotypes, study week 7",0.46
same,"Proportion with Clean Week, Mean","[4]; Active Arm Yes, all genotypes, study week 8",0.50
same,"Proportion with Clean Week, Mean","[4]; LLLS No, Active Yes, study week 1",0.50
same,"Proportion with Clean Week, Mean","[4]; LLLS No, Active Yes, study week 2",0.33
same,"Proportion with Clean Week, Mean","[4]; LLLS No, Active Yes, study week 3",0.71
same,"Proportion with Clean Week, Mean","[4]; LLLS No, Active Yes, study week 4",0.50
same,"Proportion with Clean Week, Mean","[4]; LLLS No, Active Yes, study week 5",0.25
same,"Proportion with Clean Week, Mean","[4]; LLLS No, Active Yes, study week 6",0.50
same,"Proportion with Clean Week, Mean","[4]; LLLS No, Active Yes, study week 7",0.25
same,"Proportion with Clean Week, Mean","[4]; LLLS No, Active Yes, study week 8",0.00
same,"Proportion with Clean Week, Mean","[4]; LLLS Yes, Active Yes, study week 1",0.58
same,"Proportion with Clean Week, Mean","[4]; LLLS Yes, Active Yes, study week 2",0.60
same,"Proportion with Clean Week, Mean","[4]; LLLS Yes, Active Yes, study week 3",0.58
same,"Proportion with Clean Week, Mean","[4]; LLLS Yes, Active Yes, study week 4",0.55
same,"Proportion with Clean Week, Mean","[4]; LLLS Yes, Active Yes, study week 5",0.50
same,"Proportion with Clean Week, Mean","[4]; LLLS Yes, Active Yes, study week 6",0.25
same,"Proportion with Clean Week, Mean","[4]; LLLS Yes, Active Yes, study week 7",0.56
same,"Proportion with Clean Week, Mean","[4]; LLLS Yes, Active Yes, study week 8",0.57
same,"Proportion with Clean Week, Mean","[4]; SSLS No, Active Yes, study week 1 since randomization",1.00
same,"Proportion with Clean Week, Mean","[4]; SSLS No, Active Yes, study week 2",0.50
same,"Proportion with Clean Week, Mean","[4]; SSLS No, Active Yes, study week 3",1.00
same,"Proportion with Clean Week, Mean","[4]; SSLS No, Active Yes, study week 4",0.50
same,"Proportion with Clean Week, Mean","[4]; SSLS No, Active Yes, study week 5",0.50
same,"Proportion with Clean Week, Mean","[4]; SSLS No, Active Yes, study week 6",0.50
same,"Proportion with Clean Week, Mean","[4]; SSLS No, Active Yes, study week 7",0.50
same,"Proportion with Clean Week, Mean","[4]; SSLS No, Active Yes, study week 8",0.50
same,"Proportion with Clean Week, Mean","[4]; SSLS Yes, Active Yes, study week 1",0.50
same,"Proportion with Clean Week, Mean","[4]; SSLS Yes, Active Yes, study week 2",0.50
same,"Proportion with Clean Week, Mean","[4]; SSLS Yes, Active Yes, study week 3",0.59
same,"Proportion with Clean Week, Mean","[4]; SSLS Yes, Active Yes, study week 4",0.53
same,"Proportion with Clean Week, Mean","[4]; SSLS Yes, Active Yes, study week 5",0.42
same,"Proportion with Clean Week, Mean","[4]; SSLS Yes, Active Yes, study week 6",0.30
same,"Proportion with Clean Week, Mean","[4]; SSLS Yes, Active Yes, study week 7",0.45
same,"Proportion with Clean Week, Mean","[4]; SSLS Yes, Active Yes, study week 8",0.50
same,Proportion of subjects with a methamphetamine-free week over time,"[4]; active group (all active arms combined), 34 subjects, placebo arm declined",remained roughly steady
same,Predicted treatment outcome with ondansetron,alcoholics; genotype LL/GG,X
same,Predicted treatment outcome with ondansetron,alcoholics; genotype LL/TG,X
same,Predicted treatment outcome with ondansetron,alcoholics; genotype LL/TT,XA
same,Predicted treatment outcome with ondansetron,alcoholics; genotype LS/GG,Y
same,Predicted treatment outcome with ondansetron,alcoholics; genotype LS/TG,Y
same,Predicted treatment outcome with ondansetron,alcoholics; genotype LS/TT,X
same,Predicted treatment outcome with ondansetron,alcoholics; genotype SS/GG,Z
same,Predicted treatment outcome with ondansetron,alcoholics; genotype SS/TG,Z
same,Predicted treatment outcome with ondansetron,alcoholics; genotype SS/TT,X
